PubChem BioAssay AID2305 (GlaxoSmithKline (GSK), 2010)

tested on: P. falciparum 3D7 growth, pLDH absorbance; test: blood-stage malaria parasite growth potency – strain 3D7, dose response (AID 2305)

In order of falling IC50:
1. COc1cc2ncnc(Nc3ccc4nc(Cc5ccccc5)[nH]c4c3)c2cc1OC  1480 nM
2. Cc1cccc2[nH]cc(C3CCN(CCC4CCN(C(=O)/C=C/c5ccc(Cl)c(Cl)c5)CC4)CC3)c12  1220 nM
3. O=S(=O)(c1ccc(OCc2ccc(Cl)cc2)cc1)c1cc2c(cc1OCc1ccccc1)CCN(CC1CC1)CC2  1110 nM
4. CS(=O)(=O)CCNCc1nc(-c2ccc3c(Nc4ccc(Cl)cc4F)ccnc3c2)cs1  1080 nM
5. Cc1ccc(Cc2cnc(NCCSCc3ccc(CN4CCOCC4)o3)[nH]c2=O)cn1  1070 nM
6. Cc1cc(OCCN2CCCCC2)ccc1NC(=O)c1cccc2c(=O)n(Cc3ccc(Cl)cc3)cnc12  1060 nM
7. COc1ccc([N+](=O)[O-])cc1N(Cc1ccccc1-c1ccccc1)S(=O)(=O)c1ccc(C(F)(F)F)cc1[N+](=O)[O-]  1050 nM
8. CCOC(=O)c1cc(=O)c2ccc(OCC#N)cc2o1  1030 nM
9. O=C(NCC1CC1)C1CCN(C(c2ccccc2)c2nc3ccccc3s2)CC1 (stereo not given)  1020 nM
10. Oc1c(C(Nc2ccccn2)c2ccco2)cc(Cl)c2cccnc12 (stereo not given)  1010 nM
11. O=C(Cc1ccccc1)NC(Nc1ccc([N+](=O)[O-])cc1)C(Cl)(Cl)Cl (stereo not given)  970 nM
12. CCN(CC)c1ccc(C=CC(=O)NCCN2CCC(N(C)C3CCCCC3C)CC2)cc1 (stereo not given)  960 nM
13. Cc1cc(CN2CC[C@H](NC(=O)c3ccc(Cl)c(Cl)c3)C2)ccc1OC1CCN(C)C1 (stereo not given in full)  950 nM
14. COc1ccc(-c2ccc(NC(=O)c3cccc(Cl)c3)cc2)cc1CN1CCN(C)CC1  950 nM
15. CC(CN1CCN(C)CC1)C(=O)Nc1ccc(-c2ccc(-c3nc4ccccc4[nH]3)cc2)cc1 (stereo not given)  950 nM
16. COc1cccc(C(=O)Nc2ccc(Nc3nc(C)cc(N(C)C)n3)cc2)c1  940 nM
17. CC1CCC(C(C)C)C(OC(=O)CSc2nnc3c(n2)[nH]c2ccccc23)C1 (stereo not given)  930 nM
18. COc1ccc(CN(C)CCCSc2ccc(NC(=O)c3cccc4c(=O)cc(-c5ccccc5)[nH]c34)cc2)cc1OC  920 nM
19. O=C(c1ccc(O)c(-c2cc(Cl)cc(Cl)c2)c1)N(CCO)CCO  910 nM
20. Cc1ccc(F)c(OCC2CCN(c3ncc(C(=O)NC4CC4)cc3Cl)CC2)c1  900 nM
21. CCCC(C)Nc1nc(C)cc(N[C@@H](Cc2ccccc2)C(=O)NCc2cccc(F)c2)n1 (stereo not given in full)  880 nM
22. CN1CCN(c2ccnc3ccc(NC(=O)Nc4ccc(Cl)c(Cl)c4)cc23)CC1  880 nM
23. COc1ccc2nc(C)cc(NC3Cc4ccccc4C3)c2c1  840 nM
24. c1ccc(-c2ccc3c(Nc4ccc5[nH]ncc5c4)ccnc3c2)nc1  820 nM
25. Cc1cc(Nc2ncc(Cl)c(Nc3ccccc3C(N)=O)n2)n[nH]1  810 nM
26. COc1ccc2ccccc2c1CCCCN1CCN(CC(c2ccc(F)cc2)N2CCN(C(C)C)CC2)CC1 (stereo not given)  810 nM
27. Cc1cc2nc(-c3ccc(C(=O)NCc4cccc(C(F)(F)F)c4)cc3)[nH]c2cc1C  810 nM
28. CC(CCNc1c2ccccc2nc2ccccc12)N1CCN(C)CC1 (stereo not given)  800 nM
29. COc1ccc(-c2c(C(F)(F)F)nn(C)c2NC(=O)Nc2ccc(F)cc2F)cc1  800 nM
30. CCCCc1cc(NCc2ccncc2)nc(Nc2ccc(C)cc2)n1  790 nM
31. Cc1cc(N[C@@H](CC(C)C)C(=O)Nc2ccccc2)nc(NCc2ccccc2C)n1  780 nM
32. C[C@H](Cc1ccc(OCCCOc2ccc(C[C@@H](C)NC[C@H](O)c3cccc(Cl)c3)cc2)cc1)NC[C@H](O)c1cccc(Cl)c1  780 nM
33. CC(CN(C)C)C(=O)Nc1ccc(-c2ccc(-c3nc4ccc(F)cc4[nH]3)cc2)cc1 (stereo not given)  770 nM
34. Clc1ccc(Nc2nc(-c3ccccn3)cs2)nc1  770 nM
35. Cc1ccc(F)c(OCC2CCCN(c3ccc(C(=O)NC4CC4)cn3)C2)c1 (stereo not given)  770 nM
36. COc1cc(-c2nc(C(C)(C)CN)[nH]c2-c2ccncc2)ccc1Br  770 nM
37. Cc1cccc(C)c1NC1=NC(=S)N(c2cccc(Cl)c2)C12CCC(C(C)(C)C)CC2 (stereo not given)  760 nM
38. CCc1ccc(CN2CCC(CNC(=O)c3cc(-c4cccc(C(F)(F)F)c4)cs3)C2)cc1 (stereo not given)  750 nM
39. Cc1cccc(Nc2nc(NCCCCN)nc3cc[nH]c(=O)c23)c1  730 nM
40. COc1ccc(-c2cc(Nc3nc(-c4cccc(Cl)c4)nc4ccccc34)ccn2)cc1  730 nM
41. Cc1c(C(=O)NC2CCC(CN3CCC(c4c[nH]c5ccccc45)CC3)CC2)cnn1-c1c(Cl)cc(Cl)cc1Cl (stereo not given)  710 nM
42. Cc1cc(NC(=O)N=C(N)N)ccc1Cl  700 nM
43. COc1ccc2nc(C)cc(NN=Cc3ccc([N+](=O)[O-])cc3)c2c1  690 nM
44. COc1ccc(CNCc2ccccc2)cc1-c1ccc(S(=O)(=O)NCCN2CCCC2)s1  670 nM
45. O=C(Nc1ccc(-c2cccc(-c3nc4ccccc4[nH]3)c2)cc1)N[C@@H]1C[C@H]1c1ccccc1  630 nM
46. CN1CCN(c2cc3c(cc2Br)CCN3C(=O)Nc2ccc(-c3cnc4ccccc4c3)cc2)CC1  580 nM
47. Cc1ccc(NC(C)C(=O)Nc2ccc(C#N)cc2)cc1S(=O)(=O)N1CCCCC1 (stereo not given)  540 nM
48. CCC[C@@H]([C@@H](CC1CCCCC1)C(=O)N[C@H](C(=O)Nc1nccc(N)n1)C(C)(C)C)N(O)C=O  530 nM
49. CC(Oc1cccc(Cl)c1)C(=O)N1CCc2ccccc21 (stereo not given)  510 nM
50. COC(=O)c1cccc(CNCc2cccc(-c3ccc(-c4nc5ccccc5[nH]4)s3)c2)c1  490 nM
51. COc1cccc(OC)c1CN1CCC(N(C)CCCCCCCCN2CCC(OC(=O)Nc3ccccc3-c3ccccc3)CC2)CC1  460 nM
52. O=C(N[C@H](Cc1ccc(Cl)cc1)C(=O)N1CCN(c2ccnc3cc(Cl)ccc23)CC1)[C@H]1Cc2ccccc2CN1  420 nM
53. O=C(/C=C/c1ccccc1Cl)NC1CCC(CN2CCC(c3c[nH]c4ccncc34)CC2)CC1 (stereo not given)  330 nM
54. Cc1cc(NCCc2ccccc2)nc(NC(=NCC(=O)OC(C)(C)C)Nc2ccc(C(F)(F)F)cc2)n1  330 nM
55. COc1ccc2ncc(F)c([C@H](O)CN3CCC(NCc4cc5c(cn4)OCCO5)CC3)c2c1  290 nM
56. O=C(Nc1ccc(Cl)cc1)Nc1cccc(-c2cc(CNCCc3ccccc3)oc2-c2ccncc2)c1  280 nM
57. O=C(Nc1cccc(-c2cccc(-c3nc4ccc(C(F)(F)F)cc4[nH]3)c2)c1)c1ccoc1  280 nM
58. N#Cc1cccc(NC(=O)Nc2cccc(-c3ccc(-c4nc5ccc(C(F)(F)F)cc5[nH]4)cc3)c2)c1  250 nM
59. CC(=O)N/N=C/[C@H](CCc1ccccc1)NC(=O)[C@H](CC(C)C)NC(=O)c1cccc(OCCN2CCOCC2)c1  240 nM
60. Cc1cccc2[nH]c(-c3cccc(-c4cccc(NC(=O)c5ccncc5)c4)c3)nc12  240 nM
61. O=C(Cc1ccc(Cl)cc1)NC1CCN(c2ccnc3cc(Cl)ccc23)C1 (stereo not given)  230 nM
62. CCCN(CCC)CCCN(CCCN(CCC)CCC)c1cc(C)nc(Nc2ccc3cc(Br)ccc3c2)n1  210 nM
63. CCCc1cc(Cc2cnc(N)nc2N)cc(CCC)c1OCCCCC(=O)O  200 nM
64. COc1ccc2nc3cc(Cl)ccc3c(NCCN(C)C)c2c1  190 nM
65. CC(C)Cc1ccc(N2CCN(CCCCNC(=O)c3ccc(NC(=O)c4cc(C(F)(F)F)cc(C(F)(F)F)c4)cc3)CC2)cc1  180 nM
66. CCCCCc1cc(OC(=O)CCCN(CC)CC)c2c(c1)OC(C)(C)C=C2C1=CCN(Cc2ccc3ccccc3c2)CC1  160 nM
67. NC(=O)c1cccc(C(=O)Nc2cccc(-c3csc(-c4nc5ccccc5[nH]4)c3)c2)c1  130 nM
68. CCCCCc1cc(OCCN(C)C)cc2c1C(=O)CC(C)(C)O2  100 nM
69. CNC(=O)c1ccccc1Nc1nc(Nc2cccnc2)ncc1C  100 nM
70. CC(C)NCc1ccc(OCc2cccc(COc3ccc(CNC(C)C)cc3I)c2)c(I)c1  90 nM
